Measurements reported in PubChem BioAssay (NCI).
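The compound was tested at five concentrations on cells cultured in 96-well plates, with a 48-hour exposure period. TGI is the concentration that stops growth completely.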

Legend:
Assay in all cases: NCI anticancer screen, dose series, 48 h
786-0 renal = tested on: 786-0 renal
HCT-116 colon = tested on: HCT-116 colon
T-47D breast = tested on: T-47D breast
HOP-62 NSCLC = tested on: HOP-62 NSCLC
MDA-N = tested on: MDA-N
LOX IMVI melanoma = tested on: LOX IMVI melanoma
SF-539 CNS = tested on: SF-539 CNS
SK-MEL-5 melanoma = tested on: SK-MEL-5 melanoma
RPMI-8226 leukemia = tested on: RPMI-8226 leukemia
U251 CNS = tested on: U251 CNS
SK-OV-3 ovarian = tested on: SK-OV-3 ovarian
ACHN renal = tested on: ACHN renal
HCT-15 colon = tested on: HCT-15 colon
NCI-H23 lung = tested on: NCI-H23 lung
SR leukemia = tested on: SR leukemia
HT29 colon = tested on: HT29 colon
CAKI-1 renal = tested on: CAKI-1 renal
NCI/ADR-RES ovarian = tested on: NCI/ADR-RES ovarian
MALME-3M melanoma = tested on: MALME-3M melanoma
SW-620 colon = tested on: SW-620 colon

Row | SMILES | TGI (786-0 renal) [µM] | TGI (HCT-116 colon) [µM] | TGI (T-47D breast) [µM] | TGI (HOP-62 NSCLC) [µM] | TGI (MDA-N) [µM] | TGI (LOX IMVI melanoma) [µM] | TGI (SF-539 CNS) [µM] | TGI (SK-MEL-5 melanoma) [µM] | TGI (RPMI-8226 leukemia) [µM] | TGI (U251 CNS) [µM] | TGI (SK-OV-3 ovarian) [µM] | TGI (ACHN renal) [µM] | TGI (HCT-15 colon) [µM] | TGI (NCI-H23 lung) [µM] | TGI (SR leukemia) [µM] | TGI (HT29 colon) [µM] | TGI (CAKI-1 renal) [µM] | TGI (NCI/ADR-RES ovarian) [µM] | TGI (MALME-3M melanoma) [µM] | TGI (SW-620 colon) [µM]
1 | O=c1c2ccccc2nc(-c2ccccc2)n1/N=C/c1ccccc1[N+](=O)[O-] | > 100 | > 100 | > 100 | 37.1 | > 100 | > 100 | > 100 | > 100 | > 100 | > 94.8 | > 100 | > 100 | > 100 | 58.8 | > 100 | > 100 | > 100 | > 100 | > 100 | > 100
2 | C[C@H]1[C@H]2[C@H](C[C@@]3(C)C4=CC[C@H]5C(C)(C)[C@@H](OC6OCC(O)C(O)C6O)CC[C@@]56C[C@@]46CC[C@]23C)O[C@@]2(O)[C@@H]1OC(C)(C)[C@H]2O (stereo partly specified) | 2.76 | 4.21 | 1.81 | 5.7 | 7.48 | 6.28 | 6.88 | 4.71 | 4.68 | 5.5 | 4.55 | 6.35 | 3.43 | 3.31 | 9.01 | 8.97 | 5.57 | 9.94 | 3.79 | 3.74
3 | COC(=O)c1cc(C#N)[nH]c1-c1ccc(Br)s1 | 27.7 | 26.3 | 17.2 | 21.4 | 27.9 | 23.1 | 27.2 | 15.3 | > 73.3 | 24.8 | 24.7 | 31.9 | 28 | 18.9 | > 51.9 | 24.8 | > 50.7 | 30.6 | 19.7 | 29.9
4 | COC(=O)NCCc1[nH]nc2c1C(=O)C=C(Nc1ccccc1OC)C2=O | > 100 | 38.1 | > 100 | > 100 | 35.1 | 69.9 | 34.4 | 27.1 | > 100 | 72.5 | > 100 | > 100 | > 100 | 32.7 | 86.1 | > 100 | 94.6 | 52.1 | 28 | 47.8
5 | C=C(CN(C)C)C(=O)c1ccccc1 | 13.5 | 16.7 | 4.93 | > 58.3 | 28.1 | 15.4 | 27.1 | 28.8 | > 66.3 | 35.1 | 41 | 7.32 | 28 | 45 | > 60.5 | 24.2 | 16.8 | > 100 | 11.1 | 5.07
6 | C=CC(=O)C#Cc1cnc(OC)nc1OC | 12.6 | 26.1 | 55.8 | 45.7 | 40.5 | 20.5 | 30.5 | 43.5 | 6.93 | 18.7 | > 100 | 23.6 | 24.6 | 37.6 | 6.15 | > 54.4 | 21.1 | > 86.7 | 53.3 | 23.4
7 | CC(O)C1(O)C(O)CC(OC2c3cc4c(c(O)c3[C@@H]3C[C@@]2(C)OC32C=c3cc[nH]c3=N2)C(=O)c2cccc(O)c2C4=O)OC1C (stereo partly specified) | 4.98 | 3.31 | 9.07 | 5.37 | 3.41 | 3.17 | 2.79 | 5.56 | 4.88 | 9.03 | 9.47 | 4.04 | 6.41 | 3.81 | 2.36 | 2.68 | 5.51 | 18 | 2.15 | 5.96
8 | O=C(O)CCC1C(=O)C2CCN1CC2 (stereo unspecified) | > 100 | > 100 | > 100 | > 100 | > 100 | > 100 | > 100 | > 100 | > 100 | > 100 | > 100 | > 100 | > 100 | > 100 | > 100 | > 100 | > 100 | > 100 | > 100 | > 100
9 | O=C(NCCc1ccccn1)c1ccc2cc(C(=O)N3CC(CCl)c4ccc([N+](=O)[O-])cc43)[nH]c2c1 (stereo unspecified) | > 63 | > 100 | > 100 | 48.4 | > 100 | > 100 | > 100 | > 100 | > 100 | > 100 | 46 | > 100 | > 100 | > 100 | > 100 | > 100 | > 52.7 | > 100 | > 100 | > 100
10 | CC(=O)n1nc(-c2[nH]c(C)c(-c3nn(C(C)=O)c(=S)o3)c2C)oc1=S | > 100 | > 100 | > 100 | > 100 | > 100 | > 100 | > 100 | > 100 | > 100 | > 100 | > 100 | > 100 | > 100 | > 100 | > 100 | > 100 | > 100 | > 100 | > 96.6 | > 100
11 | CC(=O)Nn1c(Cc2ccc(Cl)cc2)nn(C)c1=O | > 100 | > 100 | > 100 | > 100 | > 100 | > 100 | > 100 | > 100 | > 100 | > 100 | > 100 | > 100 | > 100 | > 100 | > 100 | > 100 | > 100 | > 100 | > 100 | > 100
12 | C=C1C(=O)O[C@H]2C(=O)[C@H](C)CCC/C(C)=C/CC[C@@]3(C)O[C@@H]3C[C@@H]12 | 3.02 | 2.26 | 4.35 | 24.3 | 11.5 | 3.03 | 6.63 | 20.7 | 4.79 | 13.3 | 30.3 | 2.63 | 3.12 | 29.3 | 10.5 | 10.6 | 3.23 | 40.5 | – | 3.54
13 | CC(NC1=NCCO1)c1ccsc1 (stereo unspecified) | 42.9 | 34.1 | > 100 | – | 65.8 | 35 | 38.2 | 40.1 | 59.9 | 36.8 | > 100 | > 100 | > 100 | > 100 | 99.6 | 42.7 | > 100 | > 100 | 58 | 43.9
14 | O=c1c2c3c(sc2nc2n1sc1nc4sc5c(c4c(=O)n12)CCCC5)CCCC3 | 31 | > 100 | 17.1 | > 100 | 97.4 | > 100 | > 100 | > 100 | > 63.2 | > 100 | > 100 | > 100 | > 100 | 79.7 | > 84.9 | > 58.8 | 36.4 | > 71.4 | – | 63.5
15 | COc1ccc(C[C@@H]2OC3(C=CC(=O)CC3Sc3ccccc3)O[C@H]2Cc2ccc(OC)cc2)cc1 (stereo partly specified) | 0.365 | – | 3.74 | 2.5 | 4.98 | 1.72 | 3 | 3.09 | 1.31 | 2.78 | 7.84 | 2.81 | 2.8 | 5.16 | 0.583 | 3.19 | 4.97 | 3.64 | 4.02 | 0.946
16 | CSc1ccccc1NC1=NCCO1 | > 100 | > 100 | > 100 | > 100 | > 100 | > 100 | > 100 | > 100 | > 100 | > 100 | – | > 100 | > 100 | > 100 | > 100 | > 100 | > 100 | > 100 | > 100 | > 100
17 | O=S(=O)(N=[Se](=O)(c1ccccc1)c1ccccc1)c1ccccc1 | > 100 | > 100 | > 100 | > 100 | > 100 | > 100 | > 100 | > 100 | > 100 | > 100 | > 100 | > 100 | > 100 | > 100 | > 100 | > 100 | > 100 | > 100 | – | > 100
18 | CC1(C)COC(c2cccc(C(O)c3ccc(Cl)cc3)c2)=N1 (stereo unspecified) | 59.8 | 37.9 | 73.9 | 88.6 | 70 | 29.1 | 42.5 | 28.6 | 89.1 | 59.6 | 65.1 | > 100 | – | 64.1 | > 100 | 37.2 | 87.1 | 77.2 | 59.9 | > 100
19 | NN/C(=N\S(=O)(=O)c1cc(S(=O)(=O)c2ccccc2)cs1)Nc1ccc(Cl)cc1 | > 100 | 74.6 | 55.9 | > 100 | 59.2 | 54.9 | > 100 | 32.3 | > 100 | 89.6 | > 100 | > 100 | > 100 | > 100 | 48.5 | > 100 | > 100 | > 100 | – | > 100
20 | c1ccc(CN2C3C4N(Cc5ccccc5)C2C2N(Cc5ccccc5)C(C(N2Cc2ccccc2)N4Cc2ccccc2)N3Cc2ccccc2)cc1 | > 100 | > 100 | > 100 | > 100 | > 100 | > 100 | > 100 | > 100 | > 100 | > 100 | > 100 | > 100 | > 100 | > 100 | > 100 | > 100 | > 100 | > 100 | – | > 100
21 | COc1ccc(NCc2cccc3c(=O)c4ccc(Cl)cc4oc23)cc1 | > 100 | > 100 | > 100 | > 100 | > 100 | > 100 | > 100 | > 100 | > 100 | > 100 | > 100 | > 100 | > 100 | > 100 | > 100 | – | > 100 | > 100 | > 100 | > 100
22 | CCOC(=O)/C1=C(\C)N(Cc2ccccc2)C(=O)c2ccccc2C(=O)c2c(OC(C)=O)ccc(OC(C)=O)c21 | > 100 | – | > 100 | > 100 | > 100 | > 100 | > 100 | > 100 | 45.1 | > 100 | > 100 | > 100 | > 100 | – | > 100 | > 100 | > 100 | > 100 | > 100 | > 100
23 | O=c1nc(N2CCCCC2)sc2[nH]c3ccccc3c12 | > 100 | – | > 100 | > 100 | > 100 | > 100 | > 100 | > 100 | > 100 | > 100 | > 100 | > 100 | > 100 | 26.2 | > 100 | > 100 | > 100 | 25.7 | > 100 | > 100
24 | CC(C)=NC(C(=O)O)C(C)(C)S (stereo unspecified) | > 100 | > 100 | > 100 | > 100 | > 100 | > 100 | > 100 | – | > 100 | > 100 | > 100 | > 100 | > 100 | > 100 | > 100 | > 100 | > 100 | > 100 | > 100 | > 100
